Experimental data from patent publication US10881704B2, “Usage of semen Ziziphi spinosae oil in the treatment of medicinal insomnia” (SHIJIAZHUANG YILING PHARMACEUTICAL CO., LTD., priority 2016, dated 2021).
Read-outs that look alike come from different tables or passages of the source.

Key:
[1] = GC fingerprint: study on the sample stability; format: physicochemical; settings: Semen Ziziphi Spinosae oil sample 2 test solution; for Relative peak area, RSD (%) / Relative retention time, RSD (%): RSD over 0-12 h; for Relative peak area, Mean / Relative retention time, Mean: mean over 0-12 h; for Relative peak area, standing time 0 / Relative retention time, standing time 0: tested at 0 h; for Relative peak area, standing time 0 / Relative retention time, standing time 0 / Relative peak area, standing time 3 / Relative retention time, standing time 3 / Relative peak area, standing time 6 / Relative retention time, standing time 6 / Relative peak area, standing time 9 / Relative retention time, standing time 9 / Relative peak area, standing time 12 / Relative retention time, standing time 12: GC; for Relative peak area, standing time 3 / Relative retention time, standing time 3: tested at 3 h; for Relative peak area, standing time 6 / Relative retention time, standing time 6: tested at 6 h; for Relative peak area, standing time 9 / Relative retention time, standing time 9: tested at 9 h; for Relative peak area, standing time 12 / Relative retention time, standing time 12: tested at 12 h
Experimental: Take 0.4 g of test sample, place into a 50 mL flask, add 6 mL of sodium hydroxide-methanol solution, and then connect with condenser water bath, and recirculate until the oil drops disappear, and slowly shake the flask every 30 sec to avoid solids formed by sodium hydroxide from being adhered onto the flask wall; recirculate 10 min, add 7 mL of boron trifluoride-methanol solution into the boiled solution through the top of the condenser using a pipette, boil for another 3 min, add 5 mL of isooctane into the boiling mixed solution through the top of the condenser, remove the condenser, take out the flask, add in 20 mL of sodium chloride solution immediately, plug the flask, shake the flask violently for 15 sec, transfer the mixed solution into a 150 mL separatory funnel, rinse the flask with 10 mL of isooctane solution twice (5 mL each time), merge the washing liquid into the separatory funnel, let the funnel stand still to stratify the solution, abandon the subnatant water liquid, place the supernatant isooctane solution into a 25 mL flask, fix the volume using isooctane, add a proper amount of sodium sulfate anhydrous to absorb the trace amount of water in the solution, shake the flask well and put aside for subsequent use.
GC: PerKinElmer Clarus 680
Chromatographic column: Agilent J&W Scientific DB-WAX quartz capillary column ([…]×0.32 mm, 0.25 μm)
Injector temperature: 270° C.,
Precisely draw 1 μL standard solution and 1 μL test solution into the gas chromatograph and conduct the test.
Semen Ziziphi Spinosae oil sample 2 was taken and prepared into test solution according to the preparation method under the item “3. Preparation of test article solution”, and the resulting test solution was tested at different time points (0 h, 3 h, 6 h, 9 h and 12 h) according to the experimental conditions under the item “4. Gas chromatographic conditions”.

[2] = system: Kunming mice; experiment: Length of sodium pentobarbital-induced sleep of mice with medicinal insomnia (ephedrine, prednisone); format: in vivo; settings: sodium pentobarbital 50 mg/kg ip
Experimental: Kunming mice, male, 18-22 g in weight;
60 mice were taken and placed into the laboratory for one week for acclimatization. Then they were randomly divided into 6 groups and dosed according to the drug and dosage in the table.
The investigational drug and insomnia-induced drugs were proportionally prepared into soybean oil solutions as investigational products, which were administered with via intragastric gavage with the intragastric volume calculated by 0.1 mL per 10 g body weight. The blank group was directly given soybean oil via intragastric gavage once daily, for consecutive 7 days. Mice were fasted at 8 h prior to the last dosing and given sodium pentobarbital (50 mg/kg) via intraperitoneal injection at 30 min after dosing, at the indoor temperature of 20° C. and the humidity of 40%. Measurements were made by using the righting reflex tester, the absence of righting reflex over 1 min was deemed as falling asleep, and the absence time and recovery time of righting reflex were observed and recorded. The duration from the absence of righting reflex to its recovery was the length of sleep.

[3] = system: mouse bone marrow cell; settings: 60 mg/kg positive control; for Number of Micronucleus-containing PCEs: 5000 PCEs tested
Experimental: The mice were given the samples every 24 h. […] They were executed at 6 h after the last gavage of sample, with the sternal bone marrow taken, prepared into slides, fixed in methanol and stained with Giemsa.
3.4.3 Outcome measure: During the microscopy, 1,000 polychromatic erythrocytes (PCE) were counted for each animal to calculate the micronucleus rate (MN‰).

[4] = system: mouse sperm; experiment: Mouse sperm malformation test; settings: 2.0 mg/kg positive control

Row | SMILES | Relative peak area, RSD (%) [1] | Relative retention time, RSD (%) [1] | Relative peak area, Mean [1] | Relative retention time, Mean [1] | Relative peak area, standing time 0 [1] | Relative retention time, standing time 0 [1] | Relative peak area, standing time 3 [1] | Relative retention time, standing time 3 [1] | Relative peak area, standing time 6 [1] | Relative retention time, standing time 6 [1] | Relative peak area, standing time 9 [1] | Relative retention time, standing time 9 [1] | Relative peak area, standing time 12 [1] | Relative retention time, standing time 12 [1] | also measured
1 | CC/C=C\C/C=C\C/C=C\CCCCCCCC(=O)OC [Peak 5] | 1.57% | 0.04% | 0.009 | 1.1834 | 0.009 | 1.184 | 0.009 | 1.184 | 0.009 | 1.184 | 0.009 | 1.183 | 0.009 | 1.183 | –
2 | CCCCCCCC/C=C\CCCCCCCC(=O)OC [Peak s] | 0.00% | 0.00% | 1.000 | 1.0000 | 1.000 | 1.000 | 1.000 | 1.000 | 1.000 | 1.000 | 1.000 | 1.000 | 1.000 | 1.000 | –
3 | CN[C@@H](C)[C@H](O)c1ccccc1 [Ephedrine, ephedrine] | – | – | – | – | – | – | – | – | – | – | – | – | – | – | Length of Sleep ([2]; Ephedrine 4 mg/kg alone ig 7 days): 60.8 ± 25.3 min
4 | O=P1(N(CCCl)CCCl)NCCCO1 (stereo not drawn) [Cyclophosphamide, cyclophosphamide] | – | – | – | – | – | – | – | – | – | – | – | – | – | – | Micronucleus-Cell Rate ([3]; Female mice): 24.6 ± 6.3 ‰; PCE/RBC ([3]; Female mice): 1.07 ± 0.13; Number of Micronucleus-containing PCEs ([3]; Female mice): 123; Micronucleus-Cell Rate ([3]; Male mice): 27.6 ± 10.4 ‰; PCE/RBC ([3]; Male mice): 1.21 ± 0.14; Number of Micronucleus-containing PCEs ([3]; Male mice): 138
5 | CCCCCCCCCCCCCCCCCCCCCC(=O)OC [Peak 11] | 1.65% | 0.08% | 0.020 | 1.6532 | 0.020 | 1.655 | 0.021 | 1.654 | 0.021 | 1.653 | 0.021 | 1.651 | 0.021 | 1.653 | –
6 | C[C@]12C=CC(=O)C=C1CC[C@@H]1[C@@H]2C(=O)C[C@@]2(C)[C@H]1CC[C@]2(O)C(=O)CO [Prednisone, prednisone] | – | – | – | – | – | – | – | – | – | – | – | – | – | – | Length of Sleep ([2]; Prednisone 1 mg/kg alone ig 7 days): 68.4 ± 27.1 min
7 | CCCCCCCCCCCCCCCCCCCC(=O)OC [Peak 8] | 1.16% | 0.03% | 0.023 | 1.3064 | 0.023 | 1.307 | 0.023 | 1.307 | 0.023 | 1.306 | 0.023 | 1.306 | 0.023 | 1.306 | –
8 | CO[C@@]12[C@H](COC(N)=O)C3=C(C(=O)C(C)=C(N)C3=O)N1C[C@@H]1N[C@@H]12 [Mitomycin C, mitomycin C] | – | – | – | – | – | – | – | – | – | – | – | – | – | – | Abnormal Rate [4]: 5.88 ± 0.97 %; Number of Aberrant Sperm: Amorphous ([4]; 5000 sperm tested): 119 n; Number of Aberrant Sperm: Banana ([4]; 5000 sperm tested): 23 n; Number of Aberrant Sperm: Big head ([4]; 5000 sperm tested): 5 n; Number of Aberrant Sperm: Folded ([4]; 5000 sperm tested): 24 n; Number of Aberrant Sperm: Hook-free ([4]; 5000 sperm tested): 113 n; Number of Aberrant Sperm: Subtotal ([4]; 5000 sperm tested): 294 n; Number of Aberrant Sperm: Two-head/two-tail ([4]; 5000 sperm tested): 10 n
